In this assay the test system is Nrf2 transcriptional activity (pARE-Luc reporter) in HepG2 cells. Description: In vitro Nrf2 transcriptional activity measurement by ARE-dependent reporter assay in HepG2 cell. Type of assay: cell-based, human. The note with it: Homo sapiens; HepG2 cells transfected with pARE-Luc, 4 hours at 37° C.; luciferase activity of Example 1-54 or Example 17-23 at 3.75 μM defined as 100%. The procedure:
Test Example 1: In Vitro Nrf2 Transcriptional Activity Measurement by ARE-Dependent Reporter Assay in HepG2 Cell
A human liver cancer-derived cell line HepG2 was transfected with pGL4.37 vector (pARE-Luc, Promega Corp.) and incubated overnight at 37° C. in a humidified atmosphere containing 5% CO2. The cells were dissociated by trypsin treatment, inoculated to a 384-well plate supplemented with a test compound, and incubated at 37° C. for 4 hours. Then, Bright-Glo Reagent (Promega Corp.) was added to the plate, and luciferase activity was measured with Envision plate reader.
Luciferase activity obtained through the action of the compound of Example 1-54 or Example 17-23 at a concentration of 3.75 μM was defined as 100%. The luciferase activity of each well was converted to a response rate (%). The dose-response curve of the compound of each Example was prepared to calculate a 50% effective concentration (EC50).
(In general: Reporter assays use an easily measured gene product as a stand-in for the process of interest.)

By EC50 is commonly meant the concentration that produces a half-maximal response. Low values mean higher potency in that assay, high ones lower potency in that assay.

With `O=C(O)c1cc(F)c(-c2cccc3c2OCN(C(=O)c2c(Cl)cc(N4C5CCCC4COC5)cc2Cl)C3)cc1N1C2CCC1COC2` [Compound 1-43, 4-[3-[2,6-Dichloro-4-(3-oxa-9-azabicyclo[3.3.1]nonan-9-yl)benzoyl]-2,4-dihydro-1,3-benzoxazin-8-yl]-5-fluoro-2-(3-oxa-8-azabicyclo[3.2.1]octan-8-yl)benzoic acid], the EC50 came to 1.8 nM. `O=C(O)c1cc(F)c(-c2cccc3c2OCN(C(=O)c2c(Cl)cc(N4CC(F)(F)C(F)(F)C4)cc2Cl)C3)cc1N1C2CCC1COC2` [Compound 1-44, 4-[3-[2,6-Dichloro-4-(3,3,4,4-tetrafluoropyrrolidin-1-yl)benzoyl]-2,4-dihydro-1,3-benzoxazin-8-yl]-5-fluoro-2-(3-oxa-8-azabicyclo[3.2.1]octan-8-yl)benzoic acid] returned an EC50 of 6.5 nM. Take `CN1CCN(c2cc(Cl)c(C(=O)N3COc4c(cccc4-c4cc(N5C6CCC5COC6)c(C(=O)O)cc4F)C3)c(Cl)c2)CC(F)(F)C1` [Compound 1-45, 4-[3-[2,6-Dichloro-4-(6,6-difluoro-4-methyl-1,4-diazepan-1-yl)benzoyl]-2,4-dihydro-1,3-benzoxazin-8-yl]-5-fluoro-2-(3-oxa-8-azabicyclo[3.2.1]octan-8-yl)benzoic acid]: it took 3.7 nM to reach a half-maximal effect (EC50). Regarding `Cn1cc2c(n1)CN(c1cc(Cl)c(C(=O)N3COc4c(cccc4-c4cc(N5C6CCC5COC6)c(C(=O)O)cc4F)C3)c(Cl)c1)C2` [Compound 1-46, 4-[3-[2,6-Dichloro-4-(2-methyl-4,6-dihydropyrrolo[3,4-c]pyrazol-5-yl)benzoyl]-2,4-dihydro-1,3-benzoxazin-8-yl]-5-fluoro-2-(3-oxa-8-azabicyclo[3.2.1]octan-8-yl)benzoic acid], the EC50 is 1.9 nM. For `N#CC1CC2(C1)CN(c1cc(Cl)c(C(=O)N3COc4c(cccc4-c4cc(N5C6CCC5COC6)c(C(=O)O)cc4F)C3)c(Cl)c1)C2` [Compound 1-47, 4-[3-[2,6-Dichloro-4-(6-cyano-2-azaspiro[3.3]heptan-2-yl)benzoyl]-2,4-dihydro-1,3-benzoxazin-8-yl]-5-fluoro-2-(3-oxa-8-azabicyclo[3.2.1]octan-8-yl)benzoic acid], the EC50 came to 12 nM.

In turn, `CN1CC2CN(c3cc(Cl)c(C(=O)N4COc5c(cccc5-c5cc(N6CCOCC6)c(C(=O)O)cc5F)C4)c(Cl)c3)CC2C1` (stereo not shown) [Compound 1-48, 4-[3-[2,6-Dichloro-4-(2-methyl-1,3,3a,4,6,6a-hexahydropyrrolo[3,4-c]pyrrol-5-yl)benzoyl]-2,4-dihydro-1,3-benzoxazin-8-yl]-5-fluoro-2-morpholin-4-ylbenzoic acid] displayed a concentration for a half-maximal effect (EC50) of 2.3 nM. `O=C(O)c1cc(F)c(-c2cccc3c2OCN(C(=O)c2c(Cl)cc(N4CCC5(CCOC5)C4)cc2Cl)C3)cc1N1CCOCC1` (stereo not shown) [Compound 1-49, 4-[3-[2,6-Dichloro-4-(2-oxa-7-azaspiro[4.4]nonan-7-yl)benzoyl]-2,4-dihydro-1,3-benzoxazin-8-yl]-5-fluoro-2-morpholin-4-ylbenzoic acid] returned an EC50 of 1.9 nM. Take `O=C(O)c1cc(F)c(-c2cccc3c2OCN(C(=O)c2c(Cl)cc(N4CCC4=O)cc2Cl)C3)cc1N1CCOCC1` [Compound 1-50, 4-[3-[2,6-Dichloro-4-(2-oxoazetidin-1-yl)benzoyl]-2,4-dihydro-1,3-benzoxazin-8-yl]-5-fluoro-2-morpholin-4-ylbenzoic acid]: the EC50 was determined as 4.6 nM. Consider `O=C(O)c1cc(F)c(-c2cccc3c2OCN(C(=O)c2c(Cl)cc(N4CCOC4=O)cc2Cl)C3)cc1N1CCOCC1` [Compound 1-51, 4-[3-[2,6-Dichloro-4-(2-oxo-1,3-oxazolidin-3-yl)benzoyl]-2,4-dihydro-1,3-benzoxazin-8-yl]-5-fluoro-2-morpholin-4-ylbenzoic acid], for which the midpoint of the response, the EC50, lay at 10 nM.

`O=C(O)c1cc(F)c(-c2cccc3c2OCN(C(=O)c2c(Cl)cc(N4CCCC4=O)cc2Cl)C3)cc1N1CCOCC1` [Compound 1-52, 4-[3-[2,6-Dichloro-4-(2-oxopyrrolidin-1-yl)benzoyl]-2,4-dihydro-1,3-benzoxazin-8-yl]-5-fluoro-2-morpholin-4-ylbenzoic acid] had an EC50 of 14 nM.

As to `CS(=O)(=O)C1CN(c2cc(Cl)c(C(=O)N3COc4c(cccc4-c4cc(N5CCOCC5)c(C(=O)O)cc4F)C3)c(Cl)c2)C1` [Compound 1-53, 4-[3-[2,6-Dichloro-4-(3-methylsulfonylazetidin-1-yl)benzoyl]-2,4-dihydro-1,3-benzoxazin-8-yl]-5-fluoro-2-morpholin-4-ylbenzoic acid], a half-maximal response (EC50) required 5 nM.

`O=C(O)c1cc(F)c(-c2cccc3c2OCN(C(=O)c2c(Cl)cc(N4CCN(C5COC5)CC4)cc2Cl)C3)cc1N1CCOCC1` [Compound 1-55, 4-[3-[2,6-Dichloro-4-[4-(oxetan-3-yl)piperazin-1-yl]benzoyl]-2,4-dihydro-1,3-benzoxazin-8-yl]-5-fluoro-2-morpholin-4-ylbenzoic acid] yielded an EC50 of 1.5 nM. In turn, `CN1CCN(c2cc(Cl)c(C(=O)N3COc4c(cccc4-c4cc(N5CCOCC5)c(C(=O)O)cc4F)C3)c(Cl)c2)CC1` [Compound 1-56] had an EC50 of 1.3 nM.

Compound `CC(C)(O)CN1CCN(c2cc(Cl)c(C(=O)N3COc4c(cccc4-c4cc(N5CCOCC5)c(C(=O)O)cc4F)C3)c(Cl)c2)CC1` [Compound 1-57, 4-[3-[2,6-Dichloro-4-[4-(2-hydroxy-2-methylpropyl)piperazin-1-yl]benzoyl]-2,4-dihydro-1,3-benzoxazin-8-yl]-5-fluoro-2-morpholin-4-ylbenzoic acid] displayed an EC50 of 1.4 nM. For the compound `O=C(O)c1cc(F)c(-c2cccc3c2OCN(C(=O)c2c(Cl)cc(N4CCN(CCO)CC4)cc2Cl)C3)cc1N1CCOCC1` [Compound 1-58, 4-[3-[2,6-Dichloro-4-[4-(2-hydroxyethyl)piperazin-1-yl]benzoyl]-2,4-dihydro-1,3-benzoxazin-8-yl]-5-fluoro-2-morpholin-4-ylbenzoic acid], the EC50 is 4.2 nM.

`O=C(O)c1cc(F)c(-c2cccc3c2OCN(C(=O)c2c(Cl)cc(N4CCOCC4)cc2Cl)C3)cc1N1CCOCC1` [Compound 1-59, 4-[3-(2,6-Dichloro-4-morpholin-4-ylbenzoyl)-2,4-dihydro-1,3-benzoxazin-8-yl]-5-fluoro-2-morpholin-4-ylbenzoic acid] registered an EC50 of 1.2 nM.

`CN1CCC(N2CCN(c3cc(Cl)c(C(=O)N4COc5c(cccc5-c5cc(N6CCOCC6)c(C(=O)O)cc5F)C4)c(Cl)c3)CC2)CC1` [Compound 1-60, 4-[3-[2,6-Dichloro-4-[4-(1-methylpiperidin-4-yl)piperazin-1-yl]benzoyl]-2,4-dihydro-1,3-benzoxazin-8-yl]-5-fluoro-2-morpholin-4-ylbenzoic acid] returned an EC50 of 4.2 nM. In the case of `O=C(O)c1ccc(-c2cccc3c2OCN(C(=O)c2c(Cl)cc(N4CC5(CCCO5)C4)cc2Cl)C3)cc1N1C2CCC1COC2` [Compound 1-61, 4-[3-[2,6-Dichloro-4-(5-oxa-2-azaspiro[3.4]octan-2-yl)benzoyl]-2,4-dihydro-1,3-benzoxazin-8-yl]-2-(3-oxa-8-azabicyclo[3.2.1]octan-8-yl)benzoic acid] it was 2.6 nM. In the case of `CC(C)(O)CN1CCN(c2cc(Cl)c(C(=O)N3COc4c(cccc4-c4ccc(C(=O)O)c(N5CCOCC5)c4)C3)c(Cl)c2)CC1` [Compound 1-62, 4-[3-[2,6-Dichloro-4-[4-(2-hydroxy-2-methylpropyl)piperazin-1-yl)benzoyl]-2,4-dihydro-1,3-benzoxazin-8-yl]-2-morpholin-4-ylbenzoic acid] it was 3.2 nM.

These data come from patent US20250171457A1, “NITROGEN-CONTAINING HETEROCYCLIC COMPOUND HAVING NRF2 ACTIVATION EFFECT” (CHUGAI SEIYAKU KABUSHIKI KAISHA, priority 2022, published 2025).
